# Assay results: patent US20230173047A1, “CITRULLINATED NUCLEOPHOSMIN PEPTIDES AS CANCER VACCINES” (SCANCELL LIMITED, priority 2020, published 2023)
# Where a SMILES comes first, the peptide text is derived from it. [ ]: non-standard residue; d: D form. Cit = NC(=O)NCCC[C@H](N)C(=O)O
# Key:
# Assay type in all cases: in vivo, mouse
# [1] = test system: T cell response in HLA-DR4 and HHDII/DP4 transgenic mice; test: Screening of citrullinated NPM peptides for T cell (IFNy) responses in HLA-DR4 and HHDII/DP4 transgenic mice; settings: for T cell response: citrullinated NPM peptides, HLA-DR4 and HHDII/DP4 transgenic mice, IFNy ELISpot
# Method: (§1) HLA-DR4 mice (Taconic, USA) and the HHDII/HLA-DP4 transgenic strain of mouse as described in patent WO2013/017545 A1 (EMMA repository, France) were used, aged between 8 and 12 weeks, and cared for by the staff at Nottingham Trent University. All work was carried out under a Home Office project licence. Peptides were dissolved in 10% dimethylformamide to 1 mg/mL and then emulsified (a series of dilutions) with the adjuvant CpG and MPLA 6 µg/mouse of each (Invivogen, UK). Peptides (25 µg/mouse) were injected subcutaneously at the base of the tail.
# (§2) ELISpot assays were performed using murine IFNy capture and detection reagents according to the manufacturer’s instructions (Mabtech, Sweden). In brief, anti-IFNʏ antibody was coated onto wells of a 96-well Immobilin-P plate. Synthetic peptides (at a variety of concentrations) and 5×10^5 per well splenocytes were added to the wells of the plate in triplicate. LPS at 5 µg/mL was used as a positive control. Peptide pulsed target cells were added where relevant at 5×10^4 per well in triplicate and plates incubated for 40 hours at 37° C. After incubation, captured IFNy was detected by a biotinylated anti-IFNʏ antibody and developed with a streptavidin alkaline phosphatase and chromogenic substrate. […] For blocking studies, anti-CD4 blocking antibody (RPA-T4) and anti-CD8 blocking antibody (2.43) from Bioxcell were used at 20 µg/mL. Spots were analysed and counted using an automated plate reader (Cellular Technologies Ltd).
# T cell responses to tumour associated epitopes are often weak or non-existent due to tolerance and T cell deletion within the thymus. The citrullinated NPM peptides were screened in HLA-DR4 and HHDII/DP4 transgenic mice for their ability to stimulate IFNy responses. Every peptide containing an arginine was selected and the arginine residue was replaced with citrulline (cit).
# (§3) Screening was performed to identify potential citrullinated NPM epitopes that could generate an immune response in mice. Mice were immunised with pools of 4-6 human citrullinated peptides. […] Each pool was administered subcutaneously as a single immunisation given once a week for three weeks. Each peptide pool contained 25 µg of each peptide in combination with CpG/MPLA as an adjuvant. Mice were culled 7 days after the third immunisation, the immune response to each peptide within the immunising pool were assessed by ex vivo IFNy ELISpot (FIG. 2). We have previously shown that citrullinated peptides can induce responses in the transgenic DR4 mouse strain. Given that different mouse strains have different MHC repertoires, two different transgenic strains (DR4 and DP4) were used for screening.
# [2] = test system: splenocytes of HHDII/DP4 transgenic mice; test: Ex vivo IFNy ELISpot on splenocytes after peptide immunisation, HHDII/DP4 mice; settings: for IFNy immune response to peptide: HHDII/DP4 mice immunised with peptide pools, 25 µg each + CpG/MPLA, weekly x3, vs media only
# Method: as §1, §2, §3
# The core epitope was confirmed by immunising mice once weekly for three weeks with 25 µg of the NPM 261-280 cit or 266-285 cit peptide. HHDII/DP4 mice were immunised with the individual peptides whereas HLA-DR4 mice were immunised with a combination of NPM 261-280 cit and 266-285 cit, all given with CpG/MPLA. Mice were culled 7 days after the third immunisation.
# To determine if the immune response to the NPM 266-285 peptide is specific to the citrullinated peptide and not the wild type (wt) version, mice were immunised with NPM 266-285 cit or NPM 266-285 wt peptides. HHDII/DP4 mice received 25 µg peptide (NPM 266-285 cit or NPM 266-285 wt) subcutaneously once a week for three weeks. Mice were culled 7 days after the third immunisation, the immune response to each peptide was assessed by ex vivo ELISpot (FIGS. 4A and 4B). […] In contrast, strong IFNy responses were detected in mice immunised with NPM 266-285 cit, these responses were significant when compared to the response to the NPM 266-285 wt peptide (p=0.0002) and the control (p=<0.0001). […]
# [3] = test system: B16 HHDII/iDP4 tumour cells; settings: immunised tumour bearing mice
# Method: as §1
# For tumour challenge experiments, mice were challenged with 1×10^5 B16 HHDII/iDP4, B16F1HHDIIMHCIIKO or B16 HHDII/PAD2KOcDP4 cells subcutaneously on the right flank 3 days before primary immunisation (unless stated otherwise) and then immunised as described above. Tumour growth was monitored at 3-4 days intervals and mice humanely euthanised once tumour reached ≥10 mm in diameter.
# The inventors had already established by Western blotting that the melanoma B16F1 cell lines constitutively express NPM and in vitro citrullination of NPM generates citrulline at position 277 (FIG. 5A and B). Next, the anti-tumour effect of NPM 266-285 cit peptide immunisation was assessed in vivo. The effect of immunisation with NPM 266-285 (cit and wt) on the growth of the mouse B16 melanoma cell line transfected with IFNy inducible human DP4 (iDP4) was assessed. […]
# [4] = test system: splenocytes of HLA-DR4 transgenic mice; test: Ex vivo IFNy ELISpot on splenocytes after peptide immunisation, HLA-DR4 mice
# Method: as §1
# ELISpot assays were performed using murine IFNy capture and detection reagents according to the manufacturer’s instructions (Mabtech, Sweden). In brief, anti-IFNʏ antibody was coated onto wells of a 96-well Immobilin-P plate. […] After incubation, captured IFNy was detected by a biotinylated anti-IFNʏ antibody and developed with a streptavidin alkaline phosphatase and chromogenic substrate. […] Spots were analysed and counted using an automated plate reader (Cellular Technologies Ltd).
# Screening was performed to identify potential citrullinated NPM epitopes that could generate an immune response in mice. […] Mice were culled 7 days after the third immunisation, the immune response to each peptide within the immunising pool were assessed by ex vivo IFNy ELISpot (FIG. 2). […]
Molecule,T cell response [1],further results
DMDMSPL-cit-PQNYLFGCELKA [6-25],No,–
PSSTP-cit-SKGQESFKKQEKTP [216-235],No,–
EDEEEEDVKLLSISGK-cit-SAP [126-145],No,–
F-cit-MTDQEAIQDLWQWcitKSL [276-294],No,–
AEEKAPVKKSI-cit-DTPAKNAQ [186-205],No,IFNy immune response to peptide [2]: failed to induce an immune response
LPKVEAKFINYVKNCF-cit-MTD [NPM 261-280 cit],Yes,"Frequency of IFNy responses ([1]; HHDII/DP4 and HLA-DR4 mice): high frequency IFNy responses; IFNy immune response to peptide [2]: significant immune responses; IFNy response to peptide ([2]; core epitope study, HHDII/DP4 mice immunised with individual peptide 25 µg weekly x3 + CpG/MPLA): Significant IFNʏ responses"
MEDSMDMDMSPL-cit-PQNYLFG [1-20],No,–
PVKKSI-cit-DTPAKNAQKSNQN [191-210],No,IFNy immune response to peptide [2]: failed to induce an immune response
EDVKLLSISGK-cit-SAPGGGSK [131-150],No,–
TVSLGGFEITPPVVL-cit-LKCG [86-105],No,–
GKDSKPSSTP-cit-SKGQESFKK [211-230],No,–
"CC[C@H](C)[C@H](NC(=O)[C@H](C)NC(=O)[C@H](CCC(=O)O)NC(=O)[C@H](CCC(N)=O)NC(=O)[C@H](CC(=O)O)NC(=O)[C@@H](NC(=O)[C@H](CCSC)NC(=O)[C@H](CCCNC(N)=O)NC(=O)[C@H](Cc1ccccc1)NC(=O)[C@H](CS)NC(=O)[C@H](CC(N)=O)NC(=O)[C@H](CCCCN)NC(=O)[C@@H](NC(=O)[C@H](Cc1ccc(O)cc1)NC(=O)[C@H](CC(N)=O)NC(=O)[C@@H](NC(=O)[C@H](Cc1ccccc1)NC(=O)[C@H](CCCCN)NC(=O)[C@H](C)N)[C@@H](C)CC)C(C)C)[C@@H](C)O)C(=O)N[C@@H](CCC(N)=O)C(=O)O [NPM 266-285 cit, AKFINYVKNCF-cit-MTDQEAIQ] (H-AKFINYVKNCF[Cit]MTDQEAIQ-OH)",–,Associated toxicity [3]: no associated toxicity
FDDEEAEEKAPVKKSI-cit-DTP [181-200],No,–
GFETPPVVL-cit-LKCGSGPVH [91-110],No,–
"CC[C@H](C)[C@H](NC(=O)[C@H](C)NC(=O)[C@H](CCC(=O)O)NC(=O)[C@H](CCC(N)=O)NC(=O)[C@H](CC(=O)O)NC(=O)[C@@H](NC(=O)[C@H](CCSC)NC(=O)[C@H](CCCNC(=N)N)NC(=O)[C@H](Cc1ccccc1)NC(=O)[C@H](CS)NC(=O)[C@H](CC(N)=O)NC(=O)[C@H](CCCCN)NC(=O)[C@@H](NC(=O)[C@H](Cc1ccc(O)cc1)NC(=O)[C@H](CC(N)=O)NC(=O)[C@@H](NC(=O)[C@H](Cc1ccccc1)NC(=O)[C@H](CCCCN)NC(=O)[C@H](C)N)[C@@H](C)CC)C(C)C)[C@@H](C)O)C(=O)N[C@@H](CCC(N)=O)C(=O)O [NPM 266-285 wt, reference compound] (H-AKFINYVKNCFRMTDQEAIQ-OH)",–,Associated toxicity [3]: no associated toxicity
FKVDNDENEHQLSL-cit-TVSLG [31-50],No,–
KSNQNGKDSKPSSTP-cit-SKGQ [206-225],No,–
AKFINYVKNCF-cit-MTD [NPM 266-280 cit],Yes,"Response to core peptide compared with NPM 266-285 cit [4]: significant difference; Response to core peptide compared with NPM 261-280 cit or NPM 266-285 cit ([2]; HHDII/DP4 transgenic mice, IFNy ELISpot): no significant difference"
YVKNCF-cit-MTDQEAI QDLWQW [271-290],No,–
QLSL-cit-TVSLGAGAKDELHIV [41-60],No,–
DENEHQLSL-cit-TVSLGAGAKD [36-55],No,–
PPVVL-cit-LKCGSGPVHISGQH [96-115],No,–
LSISGK-cit-SAPGGGSKVPQKK [136-155],No,–
